US20110144039A1, “ANTIOXIDATIVE AND HEPATOPROTECTIVE COMPOSITIONS CONTAINING DIARYHEPTANOIDS FROM ALNUS JAPONICA” (RNL BIO CO., LTD., priority 2009, published 2011)
Where two headings read alike, the source gives them in different places.

What was measured:
[1] = system: primarily cultured hepatocytes of rats; test: Hepatoprotective activity: inhibition of tert-butyl hydroperoxide-induced necrosis (LDH release) in primary hepatocytes; type: cell-based, white rats; settings: 1.2 mM tBH for 50 minutes
Procedure: In order to measure the hepatoprotective activities of the A. japonica sample fractions, the primarily cultured hepatocytes of white rats were isolated, and then the inhibitory abilities of the fractions against necrosis induced by treating the isolated hepatocytes with 1.2 mM of tert-butyl hydroperoxide for 50 minutes were examined (Park E J et al., Planta Med, 71: 508˜513, 2005).
Hepatocytes were isolated from white rats according to the method of Seglen et al. Briefly, white rats were anesthetized and the abdomen was incised. Then, a catheter was inserted into the portal vein and perfused with Ca^2+, Mg^2+-free Hank's balanced salt solution bubbled with a mixed gas of 5% CO2 and 95% O2 at 37° C. so as to remove blood from the liver. Then, the catheter was perfused with 0.05% type IV collagenase and 1 mM CaCl2 solution. The liver tissue was removed from the body, and a hepatocyte suspension was prepared from the liver tissue and centrifuged at 50×g for 2 minutes. The precipitated hepatocytes were collected and washed twice with Ca^2+, Mg^2+-free Hank's balanced salt solution. The washed hepatocytes were added at a concentration of 1×10^6 cells/ml to Williams' Medium E (WME, GibcoBRL, USA) containing 10% (v/v) fetal bovine serum (FBS, GibcoBRL), 10^−8 M insulin, 50 U/ml of penicillin and 50 μg/ml of streptomycin (Sigma) in an incubator coated with type I collagen, and were then cultured under 5% CO2 at 37° C. After 2 hours of the culture, the cells were washed with Hank's balanced salt solution to remove non-adhered cells, and the medium was replaced with fresh medium. Then, the cells were cultured under 5% CO2 at 37° C. for 16 hours and then used in the experiment.
Herein, tBH is metabolized into free radical intermediates, which initiate lipid peroxidation to affect the cell integrity, and release LDH into the medium, thus forming covalent bonds with cellular molecules causing damage to the cells.

[2] = TOSC (total oxyradical scavenging capacity) assay, peroxyl radicals generated from ABAP; type: biochemical; settings: both oxyradicals; for scavenging capacity for peroxyl radicals and peroxynitrite: rank in words
Procedure: In order to measure the antioxidative activities of the A. japonica sample fractions, the radical scavenging capacities of the fractions were measured in the following manner using the total oxyradical scavenging capacity (TOSC) assay. The TOSC assay was performed by a modification of the method proposed by Winston et al. (Free Radic. Biol. Med., 24: 480˜493, 1998) (J. Agric. Food Chem. 56, 10510-10514, 2008).
Peroxyl radicals were generated by the thermal homolysis of 2,2′-azobisamidinopropane (ABAP) at 35° C., and peroxynitrite was generated by the spontaneous decomposition of SIN-1.
Then, a total volume of 1 ml of the reaction solution was placed in a 10-ml vial sealed with a rubber septum. For detection of the produced ethylene gas, a gas chromatograph (GC), equipped with a DB-05 capillary column and a flame ionization detector) (FID), was used, an oven set was 60° C., and the injector and the detector were set at 180° C. As a mobile phase, helium was injected into the column at a rate of 2 ml/min. For quantitative determination of the amount of ethylene gas in the vial, 150 μl of gas was sampled from the vial with a gas-tight syringe using a headspace technique and injected into the injector.
The area under the kinetic curve (AUC) was obtained by integrating the graph determined from the results of the above experiment, and the TOSC value was calculated according to the following equation 1 and shown in Table 1 below:
TOSC=100−(∫SA/∫CA×100) [Equation 1]

[3] = Rattus norvegicus, Hepatocyte, 50 min, means ± SE of three independent experiments in triplicate, read-out: ED50 (the source's name)
[4] = Rattus norvegicus, Hepatocyte, 50 min, read-out: LDH release inhibitory rate (ED50)
[5] = read-out: LDH release inhibitory rate (ED50)

COc1cc(C2Oc3cc([C@H]4Oc5cc(O)cc(O)c5C(=O)[C@@H]4O)ccc3OC2CO)ccc1O (stereo partly shown) [Silibinin, reference compound]
EC50 [1, 3]: 131 ± 6.7 µM | EC50 [1, 4]: 131 µM

O=C(CCc1ccc(O)c(O)c1)C[C@@H](O)CCc1ccc(O)c(O)c1 [hirsutanonol]
scavenging capacity for peroxyl radicals and peroxynitrite [2]: highest | EC50 [1, 3]: 6.28 ± 0.81 µM | EC50 [1, 4]: 6.28 µM

O=C(/C=C/CCc1ccc(O)c(O)c1)CCc1ccc(O)c(O)c1 [hirsutenone]
scavenging capacity for peroxyl radicals and peroxynitrite [2]: highest | EC50 [1, 3]: 3.08 ± 0.14 µM | EC50 [1, 4]: 3.08 µM

alnuside A
scavenging capacity for peroxyl radicals and peroxynitrite [2]: second highest | EC50 [1, 5]: 26.5 µM

alnuside B
scavenging capacity for peroxyl radicals and peroxynitrite [2]: second highest | EC50 [1, 5]: 25.9 µM

platyphyllonol-5-xylose [Platyphyllone-5-xylose]
activities against reactive oxygen species ([2]; in words): weak | effect on the inhibition of LDH release ([1]; in words): no effect

rubranoside C
scavenging capacity for peroxyl radicals and peroxynitrite [2]: second highest | EC50 [1, 5]: 12.8 µM
